From paper PMC6815956, “Bioinspired Self-assembling Peptide Hydrogel with Proteoglycan-assisted Growth Factor Delivery for Therapeutic Angiogenesis” (Theranostics, 2019)

Assays:
[1] = Isothermal titration calorimetry, binding of HS to LRK; conditions: ITC, 25 °C, PBS
Description: Isothermal titration calorimetry (ITC) measurements were operated at 25 °C using a Micro ITC-200 microcalorimeter (GE Healthcare Life Sciences). The procedure was performed by titrating 0.35 mM HS from a syringe into 0.2 mM RADA16-LRK peptide solution loaded in a cell (both in PBS). In the next step, the data were integrated after background correction and fitted to a curve to obtain the binding constant.
To test the binding affinity between HS and […] peptide sequence, the molecular interactions between LRK sequence and HS were studied by ITC. Heat changes were recorded when the increments of HS solution were titrated drop by drop into functionalized peptide LRK solution. The binding constant Ka = [drawing 5] M^-1 was then obtained by approximating the integrated data into a fitting curve (Figure 4A).

[2] = Circular dichroism spectroscopy (secondary structure); assay type: physicochemical; conditions: 0.05 % (w/v)
Description: Circular dichroism (CD) spectra were collected on a CD Spectrometer Model 410 (AVIV Biomedical Inc.) to explore the secondary structure of SAPs. The cuvette quartz cell's path length was 1mm with a wavelength range between 190-260 nm at ambient temperature. The 0.05 % (w/v) RADA16-QLK, RADA16-LRK, and HS solution were allowed to store at 4 °C overnight to ensure complete self-assembly before measurement.
(§1) TEM images were obtained to identify the morphological change of nanofiber microstructure before and after enzymatic crosslinking. […] From the findings of TEM and AFM images, the interwoven nanofibers with diameters of 10-20 nm and pore sizes between 10-200 nm were similar to natural ECM fibers in both appearances and scales (Figure 2B-E).

[3] = TEM and AFM of nanofibers; assay type: physicochemical; conditions: 0.05 % (w/v); for fiber morphology: TEM
Description: Transmission electron microscopy (TEM) was used to observe the microstructure of peptides with a Hitachi HT7700 (120 kV) Bio-TEM. The 0.05 % (w/v) RADA16-QLK before and after microbial transglutaminase (mTG) crosslinking were prepared at pH 7. The TEM samples were prepared by dropping 10 μL of peptide solution on the copper grid coated with carbon film and stained with 2 % phosphotungstic acid solution. The morphology of the peptide scaffolds was captured using atomic force microscopy (AFM) (DI Dimension 3100, Veeco Instruments Inc, US) in dynamic force mode. In brief, 0.05 % (w/v) peptide solution was sprayed on the surface of a cleaved mica for 5 min, the surface was then washed with sterilized water for several times and blown dry by anhydrous nitrogen.
as §1

[4] = Oscillatory rheology, frequency sweep; assay type: physicochemical; conditions: for storage modulus (G'): frequency sweep, 1 % strain
Description: (§2) The mechanical properties of the hydrogel scaffold were measured using a rheometer (Anton Paar, US). Measurements for the dynamic oscillatory frequency sweep (0.1-100 Hz) were performed at 1% strain amplitude and 25 °C. Shear recovery (1 % strain for 60 s, 50 % strain for 30 s, 1 % strain for 60 s) was conducted for three cycles at 25 °C. All measurements were performed on a 25-mm cone plate and the Anton Paar Rheometer software was used for analysis.
(§3) The 2 % (w/v) RADA16-QLK and RADA16-LRK peptide solutions were mixed in a volume ratio of 3:1, and then introduced into a self-made cylinder mold. PBS buffer or cell culture medium was further added to trigger sol-gel transition. For the crosslinking process, the self-assembled cylindrical hydrogel was soaked into mTG solution (20 U/mL PBS) for 12 h at 38 °C. 40 µL of peptide hydrogel was transferred into a 96-well plate followed by 200 µL of PBS added to each well and incubated at 37 °C. At predetermined time points (3, 12, 24, 72, 168, 336, 504, 672, and 840 h), the supernatant was completely removed by syringe and replenished with fresh PBS. The collected supernatant was then stored at -80 °C for further tests. Ninhydrin reagent solution was employed to quantify the disintegrated peptide amino acid sequences of the hydrogel according to manufacturer's protocols. After the addition of 95 % ethanol to stop the reaction, the absorbance of the hydrogel at 570 nm was measured by a SpectraMax Plus 384 Microplate Reader.
(§4) To test the mechanical stability and stiffness of the peptide hydrogel, frequency sweep and shear recovery measurements were conducted. […] The storage modulus (G') of QLK hydrogel increased from 1000 Pa to 5000 Pa, while the G' of QLK/LRK hydrogel increased from 400 Pa to 2500 Pa (Figure 3A-B). At least a five-fold enhancement in rheological stiffness and the mechanical properties of QLK-functionalized hydrogel were adjustable with mTG treatment. The concentration of transglutaminase also had influence on the mechanical properties of the hydrogel. Basically, the storage modulus (G') of the hydrogel was increased with the increase of mTG concentration. It was measured at pressure levels of 1 kPa, 1.5 kPa, 3 kPa, 5 kPa with respect to the concentrations of 0 U/mL, 5 U/mL, 10 U/mL, 20 U/mL.
Figure 3 Rheological properties of peptide hydrogel.

[5] = Shear recovery (continuous step strain); assay type: physicochemical; conditions: 1 % strain 60 s, 50 % strain 30 s, three cycles, 25 °C, n = 6
Description: as §2, §4

[6] = In vitro disintegration in PBS (ninhydrin); assay type: physicochemical; conditions: 2 % (w/v) hydrogel, 37 °C, ninhydrin 570 nm, n = 6; for total disintegration in PBS: 35 days; for disintegration in PBS: first three days
Description: as §3
To evaluate the stability of the peptide hydrogel in PBS buffer, Ninhydrin reagent solution was used to quantify the disintegration rate of peptide hydrogel in vitro. […] After this initial period of rapid disintegration, the kinetics slowed down. […] The disintegration rate of hydrogel was slower in the crosslinking group when compared with that in the non-crosslinking group during the investigative time period. Next, we are interested in figuring out if different culture condition will result in different peptide disintegration rate. Thus, another group of peptides incubated in cell culture medium was also conducted for comparison.

[7] = In vitro disintegration in cell culture medium; assay type: physicochemical; conditions: 2 % (w/v) hydrogel, with and without mTG (20 U/mL), n = 6
Description: as §3
To evaluate the stability of the peptide hydrogel in PBS buffer, Ninhydrin reagent solution was used to quantify the disintegration rate of peptide hydrogel in vitro. […] After this initial period of rapid disintegration, the kinetics slowed down. […]

[8] = GF loading efficiency (ELISA); assay type: physicochemical; conditions: GF/HS complex in QLK/LRK peptide hydrogel, n = 6
Description: (§5) At specific time intervals, the supernatants were collected, stored at -80 °C, and fresh release buffer was compensated. […] After adding the stop solution, the absorbance of the hydrogel at 450/540 nm was recorded by SpectraMax Plus 384 Microplate Reader.
(§6) It was the major challenge for scaffold-based GF delivery that how to maintain the release rate of incorporated GFs.

[9] = GF release profile (ELISA); assay type: physicochemical; conditions: from GAG-assisted QLK/LRK hydrogel, PBS w/ 0.05 % Tween 20, 1 % BSA, 37 °C, n = 6
Description: as §5, §6

HUVECs = experiment: Endothelial tube-like formation assay; assay type: cell-based, human; conditions: GF released from hydrogel (200 ng, 3 days), 8 h, n = 8, vs basal medium
Description: To identify the angiogenic ability of released GFs in vitro, 80 µL of GF-depleted peptide hydrogel was introduced to a pre-cooled 96-well plate using chilled pipet tips. The gel was incubated for 30 min at 37 °C with 5 % CO2 to induce gelation. [drawing 4] HUVECs were first seeded on GF-depleted peptide hydrogel with 100 μL of culture medium and incubated for 8 h. […] Finally, the differentiations of HUVECs were observed periodically for 8 h under an inverted phase contrast microscope. Angiogenesis Analyzer ImageJ (NIH) was employed for quantification and the images were taken in ten random fields per sample.
Figure 5 The human umbilical vein endothelial cells (HUVECs) tube-like formation assay. […] (B) The original images were analyzed by Angiogenesis Analyzer for ImageJ (NIH), and the quantified result of total vessels length, total meshes area, total branches intervals were calculated (all the values were normalized with the analyzed area). […] Error bars show ± S.D. for total n = 8.

[10] = compared with VEGF; ref [20]; cited from earlier work

## AcN-RADARADARADARADAGGLRKKLGKA-CONH
[1]
  HS binding (in words): good HS binding consensus sequence

## AcN-RADARADARADARADAGGQQLK-NH2 [self-assembling peptide with transglutaminase-crosslinkable QQLK motif; forms hydrogel]
[2]; 4 °C overnight, ambient temperature, without mTG
  secondary structure by CD: β-sheet secondary structure
[2]; after mTG crosslinking
  secondary structure by CD: β-sheet secondary structure
  CD negative maximum peak: 216 nm
  CD positive maximum peak: ~195 nm
[2]; without mTG
  CD negative maximum peak: 216 nm
  CD positive maximum peak: ~195 nm
[3]; TEM and AFM, pH 7
  nanofiber diameter: 10-20 nm
  pore size of fibrous network: 10-200 nm
[3]; pH 7, after mTG (20 U/mL) crosslinking
  fiber morphology: more densely-compacted nanofibrous entanglements and more continuous self-assembling fibers
[3]; pH 7, before enzymatic crosslinking
  fiber morphology: Sparsely-wired fiber entanglements
[4]; after vs before mTG, 25 °C
  enhancement of stiffness / storage modulus by mTG: five-fold increase of storage modulus
[4]; 25 °C, after mTG crosslinking
  storage modulus (G'): 5000 Pa
[4]; 25 °C, before mTG crosslinking
  storage modulus (G'): 1000 Pa
[4]; mTG 0 U/mL
  storage modulus (G') vs mTG concentration: 1 kPa
[4]; mTG 5 U/mL
  storage modulus (G') vs mTG concentration: 1.5 kPa
[4]; mTG 10 U/mL
  storage modulus (G') vs mTG concentration: 3 kPa
[4]; mTG 20 U/mL
  storage modulus (G') vs mTG concentration: 5 kPa
[5]
  shear thinning / shear recovery: shear thinning and a potential shear recovery ability
[6]; mTG-crosslinked (20 U/mL)
  total disintegration in PBS: approximately 61%
  disintegration in PBS: 20%
[6]; non-crosslinked
  total disintegration in PBS: ~82%
  disintegration in PBS: 40%
[7]
  disintegration in cell culture medium vs PBS: degraded faster in the culture medium condition compared to that in PBS, especially in the group without crosslinking

## HGF: Recombinant Human HGF (HEK293 derived); hepatocyte growth factor
[8]
  loading efficiency: ~82.5 ± 2.1%
[9]; 28 days, ELISA
  cumulative release, total: approximately 46%
[9]; day 3, ELISA
  cumulative release, initial: 25%
HUVECs
  tube-like formation of HUVECs: positive effect on tube-like formation of HUVECs
[10]
  binding affinity with heparin or HS (in words): higher binding affinity with heparin or HS than VEGF

## VEGF
HUVECs
  tube-like formation of HUVECs: positive effect on tube-like formation of HUVECs
